Experimental data as given in US7718613B2, “Armed peptides” (priority 2001, dated 2010).
The star is where a group is joined. Myristoyl = CCCCCCCCCCCCCC(=O)*

Columns and labels:
[1] = Detection of VTB epitope and VTB subunit by pH arming liposomal assay
[2] = Cloaking of peptide activity with pH and DNA binding, calcein liposome lysis
Description: Calcein liposomes containing (5 μM lipid) were added to 2 ml phosphate buffered saline containing the peptide (0.4 μM) and the fluorescence recorded. This was carried out at pH values of 6.6 and 7.4. The fluorescence intensity indicative of leakage after five minutes was expressed as a % of lysis obtained with 10 μl of 10% Triton-X100. the latter taken to represent 100% lysis. The experiment was repeated whereby the peptide was pre-condensed with calf thymus DNA (Sigma) at charge ratio to give minimum lysis at pH 7.4. […] Thus the DNA condensate of the peptide would require both the de-condensation and slightly acidic conditions to cause lysis. Cloaking of peptides with DNA binding and pH has obvious advantages when delivering genes via the endosome route where low pH is encountered. A combination of highly anionic region (towards the N terminal end of peptide 13 table 1 residues LEAALAEALEAL) and highly cationic region (the c terminal end of peptide 13 table 1, residues RRRRQQ,) within the same polypeptide sequence is critical to this fuction.
To assess condensation of DNA to peptide and its effect on cytolytic activity, assays were performed at several different pH values and at different peptide to DNA ratios. […] The peptide or complexes have a property of retaining high basic character on one end which is essential for DNA binding while retaining highly acidic character on the other half of the molecule which is critical for pH switching.

[3] = Liposome-peptide integral complex: pH-triggered calcein release and stability; settings: after Sepharose CL-6B column, FIG. 8A
Excerpt: A fatty acid incorporated on the N-terminal of peptide anchors the sequence with liposomes to form integral complex which can then be used as single stable reagent that can be triggered to release the contents-of the liposomoes when the pH is ideal (i.e physiological 7.4) or acidic (e.g 6.2). In the first instance we prepared the liposome-peptide complex at a predetermined ratio of lipid-to peptide (30:1) in pH 8 buffer using peptide 10. […] The complex between liposomes and peptide was formed by adding peptide to […] of 10 mM NaP containing 140 mM NaCl, 1 mM EDTA, 5 mM Hepes pH 8 buffer, containing 100 μl of calcein encapsulating liposomes. The mixture was incubated for 20 mins to form the complex prior to use. In order to ascertain that the lysis is occurring due to the formation of complex and not as the action of the peptide per se it was essential to purify the liposome-peptide complex. The peptide to lipid ratio in this complex is 1:30. The complex was applied to a Sepharose CL-6B column. Fractions corresponding to liposomes were collected as clearly visible to the eye. Aliquots of these fractions were then tested for lytic activity at acidic and physiological pH values. The key aim was to establish that the peptide is liposome associated and would thus be eluted with liposome fraction in the void volume. We used 100 μl complex (a column purified fraction) and followed the release of Calcein at two different pH values.
FIG. 8A. […] Upper curve pH 5.8. Lower curve pH 7.4.
2 ml buffer (10 mM Na phosphate, 140 mM NaCl, 1 mM EDTA, 5 mM HEPES)+50 μl purified complex. Lipsomes used were 50 nm extruded. Curves top to bottom are pH 6.2, 6.4, 6.7, 7.0, 7.4
Complex 20 μl liposomes+60 μl pH 8 buffer+20 μl peptide (0.1 mg/ml) prepared and used within 2 minutes. 10 μl was added to each of the cuvettes containing 2 ml buffers. Top curve pH 6.2 (triton was added towards the end indicated by sharp dip in fluorescence to check full lysis), the lower curve is at pH 7.4. Samples measured simultaneously.
5 μL of complex in 2 ml of buffer tested 20 minutes after preparation. Upper curve pH 6.2, Lower curve pH 7.4.
5 μL of complex in 2 ml of buffer tested 5 hrs after preparation. Upper curve pH 6.2 and lower curve pH 7.4.
5 μL of complex in 2 ml of buffer tested 24 hrs after preparation curve pH 6.2, Lower curve pH 7.4.

[4] = Activation of phosphorylated peptide by alkaline phosphatase, calcein liposome lysis
Description: Alkaline phosphatase (bovine intestinal mucosa) obtained from Sigma was used for dephosphorylation of peptide at the serine phosphate. A 10 μl of Peptide solution (0.01 mg/ml) was added to 2 ml of 10 mM HEPES buffer at pH 6.8 and 10 units of alkaline phosphatase added. After allowing 10-minute incubation for dephosphorylation calcein liposomes (5 μM lipid) were added and fluorescence intensity recorded using wavelengths of 490 nm for excitation and 520 nm for emission. Control experiment was conducted in the absence of alkaline phosphates. […] Thus the enzyme treatment yielded the dephosphorylated peptide resulting in activation of the peptide under mildly acidic conditions 3 μl of 0.1 mg/ml of peptide 12 (table 1) was incubated for 10 minutes with alkaline phosphatase in 20 μl 10 mM Tris-HCL pH 8 buffer. This was then added (see arrow on FIG. 14B) to 2 ml PBS pH 6.6 buffer containing 3 μl of calcein liposomes (3 mg/ml lipid concentration). Fluorescence was recorded as a function of time with excitation and emission wavelengths of 490 nm and 520 nm respectively. A similar experiment was carried out in the absence of alkaline phosphatase.

Substance: Myr-EAALAEALAEALAEGK(ELFTNR)PALISWRRRLQQ-amide [peptide 6]
- detection of VTB subunit by release of calcein ([1]; VTB subunit competing for anti-epitope antibody, pH 6.8, FIG. 7): could also be detected
- pH sensitivity of cytolytic activity ([1]; analogous to parent Peptide 2): pH sensitive
- detection of VTB epitope by release of calcein ([1]; free epitope (ELFTNR) competing for 6 μg anti-epitope antibody, FIG. 6): could be detected

Substance: Myr-LEAALAEALEALAAGKPALISWIRRRRQQ-Amide (Myristoyl-LEAALAEALEALAAGKPALISWIRRRRQQ-NH2; SMILES CCCCCCCCCCCCCC(=O)N[C@@H](CC(C)C)C(=O)N[C@@H](CCC(=O)O)C(=O)N[C@@H](C)C(=O)N[C@@H](C)C(=O)N[C@@H](CC(C)C)C(=O)N[C@@H](C)C(=O)N[C@@H](CCC(=O)O)C(=O)N[C@@H](C)C(=O)N[C@@H](CC(C)C)C(=O)N[C@@H](CCC(=O)O)C(=O)N[C@@H](C)C(=O)N[C@@H](CC(C)C)C(=O)N[C@@H](C)C(=O)N[C@@H](C)C(=O)NCC(=O)N[C@@H](CCCCN)C(=O)N1CCC[C@H]1C(=O)N[C@@H](C)C(=O)N[C@@H](CC(C)C)C(=O)N[C@H](C(=O)N[C@@H](CO)C(=O)N[C@@H](Cc1c[nH]c2ccccc12)C(=O)N[C@H](C(=O)N[C@@H](CCCNC(=N)N)C(=O)N[C@@H](CCCNC(=N)N)C(=O)N[C@@H](CCCNC(=N)N)C(=O)N[C@@H](CCCNC(=N)N)C(=O)N[C@@H](CCC(N)=O)C(=O)N[C@@H](CCC(N)=O)C(N)=O)[C@@H](C)CC)[C@@H](C)CC) [Peptide 13]
- lysis of calcein liposomes when no DNA is present ([2]; 0.4 μM peptide, pH 6.6 vs 7.4, five minutes, FIG. 15): activated by acidic pH
- cytolytic activity with DNA at acidic pH ([2]; DNA substantially dissociated): activity is regained
- effect of DNA binding on peptide activity ([2]; pre-condensed with calf thymus DNA, FIG. 15): substantial inactivation
- cytolytic activity bound to DNA at physiological pH ([2]; several peptide to DNA ratios): inactive

Substance: Myr-WBALAEALAEALAEHLAKALAEALEALAA-Amide [peptide 10]
- Calcein release from purified liposome-peptide complex at pH 5.8 ([3]; peptide to lipid 1:30, pH 5.8): acid triggered release
- Calcein release from purified liposome-peptide complex at pH 7.4 ([3]; peptide to lipid 1:30, pH 7.4): little or no release

Substance: Myr-WEA ALA EAL AEA S(Phospho)AE HLA RAL AEA LEA LAA-Amide [peptide 12]
- dye release in the presence of alkaline phosphatase, pH 6.8 ([4]; 10 units alkaline phosphatase, 10 mM HEPES pH 6.8, FIG. 14A): substantial dye release
- dye release, enzyme treated peptide, pH 6.6 ([4]; alkaline phosphatase pre-incubation pH 8, then PBS pH 6.6, FIG. 14B curve 1): release of the dye
- dye release, non-treated peptide, pH 6.6 ([4]; no alkaline phosphatase, PBS pH 6.6, FIG. 14B curve 2): no or little rate increase
- dye release in the absence of enzyme, pH 6.8 ([4]; no alkaline phosphatase, pH 6.8, FIG. 14A): low release
